Measured values: ChEMBL document CHEMBL1136951, “5-hydroxyindole-2-carboxylic acid amides: novel histamine-3 receptor inverse agonists for the treatment of obesity” (J Med Chem, 2009)

What was measured:
[1] = human, microsomes, 2 µM
[2] = rat, microsomes, 2 µM
in vivo [3] = conditions: Sprague-Dawley, rat, brain, po, 10 mg/kg
in vivo [4] = conditions: Wistar, rat
in vivo [5] = conditions: Wistar, rat; remark: listed apart in the source
hERG (KCNH2) = hERG (KCNH2) (Homo sapiens, UniProt Q12809); assay: in vitro; conditions: CHO cells expressing human ERG
physchem [6] = assay: physchem
physchem [7] = assay: physchem; remark: listed apart in the source
physchem [8] = conditions: octanol/water, pH 7.4
Rattus norvegicus [9] = organism: Rattus norvegicus; assay: animal or person; conditions: Wistar, ip, read-out: INH
in vivo [10] = conditions: Wistar, rat; remark: listed apart in the source
Rattus norvegicus [11] = organism: Rattus norvegicus; assay: animal or person; conditions: Wistar, po, read-out: INH
Rattus norvegicus [12] = organism: Rattus norvegicus; assay: animal or person; conditions: Wistar, ip, read-out: INH; remark: listed apart in the source
[13] = biological target: Histamine H3 receptor (Homo sapiens) (UniProt Q9Y5N1); conditions: CHO, 3 uM
Rattus norvegicus [14] = organism: Rattus norvegicus; assay: animal or person; conditions: Wistar, ip, read-out: INH; remark: listed apart in the source
in vivo [15] = conditions: Sprague-Dawley, rat, brain/plasma, ip, 30 mg/kg
Rattus norvegicus [16] = organism: Rattus norvegicus; assay: animal or person; conditions: Wistar, po, read-out: INH; remark: listed apart in the source
in vivo [17] = conditions: Sprague-Dawley, rat, brain, ip, 30 mg/kg
Rattus norvegicus [18] = organism: Rattus norvegicus; assay: animal or person; conditions: Wistar, ip, read-out: INH; remark: listed apart in the source
[19] = biological target: Histamine H2 receptor (Homo sapiens) (UniProt P25021); conditions: CHO, 3 uM
in vivo [20] = conditions: Sprague-Dawley, rat, brain, ip, 10 mg/kg
[21] = biological target: Histamine H1 receptor (Homo sapiens) (UniProt P35367); conditions: CHO, 3 uM
[22] = biological target: Histamine H4 receptor (Homo sapiens) (UniProt Q9H3N8); conditions: CHO, 3 uM

Histamine H2 receptor (Homo sapiens), sequence (P25021 whole entry): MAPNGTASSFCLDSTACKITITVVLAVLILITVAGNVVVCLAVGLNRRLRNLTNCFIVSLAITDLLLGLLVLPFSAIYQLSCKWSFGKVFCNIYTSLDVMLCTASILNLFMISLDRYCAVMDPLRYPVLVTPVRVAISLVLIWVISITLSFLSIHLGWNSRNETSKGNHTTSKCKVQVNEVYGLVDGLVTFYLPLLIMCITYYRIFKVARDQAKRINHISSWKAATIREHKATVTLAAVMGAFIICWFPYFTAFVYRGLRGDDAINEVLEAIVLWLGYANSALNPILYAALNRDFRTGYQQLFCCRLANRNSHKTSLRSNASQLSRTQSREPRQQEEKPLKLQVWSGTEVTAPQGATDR
hERG (KCNH2), sequence (Q12809 whole entry): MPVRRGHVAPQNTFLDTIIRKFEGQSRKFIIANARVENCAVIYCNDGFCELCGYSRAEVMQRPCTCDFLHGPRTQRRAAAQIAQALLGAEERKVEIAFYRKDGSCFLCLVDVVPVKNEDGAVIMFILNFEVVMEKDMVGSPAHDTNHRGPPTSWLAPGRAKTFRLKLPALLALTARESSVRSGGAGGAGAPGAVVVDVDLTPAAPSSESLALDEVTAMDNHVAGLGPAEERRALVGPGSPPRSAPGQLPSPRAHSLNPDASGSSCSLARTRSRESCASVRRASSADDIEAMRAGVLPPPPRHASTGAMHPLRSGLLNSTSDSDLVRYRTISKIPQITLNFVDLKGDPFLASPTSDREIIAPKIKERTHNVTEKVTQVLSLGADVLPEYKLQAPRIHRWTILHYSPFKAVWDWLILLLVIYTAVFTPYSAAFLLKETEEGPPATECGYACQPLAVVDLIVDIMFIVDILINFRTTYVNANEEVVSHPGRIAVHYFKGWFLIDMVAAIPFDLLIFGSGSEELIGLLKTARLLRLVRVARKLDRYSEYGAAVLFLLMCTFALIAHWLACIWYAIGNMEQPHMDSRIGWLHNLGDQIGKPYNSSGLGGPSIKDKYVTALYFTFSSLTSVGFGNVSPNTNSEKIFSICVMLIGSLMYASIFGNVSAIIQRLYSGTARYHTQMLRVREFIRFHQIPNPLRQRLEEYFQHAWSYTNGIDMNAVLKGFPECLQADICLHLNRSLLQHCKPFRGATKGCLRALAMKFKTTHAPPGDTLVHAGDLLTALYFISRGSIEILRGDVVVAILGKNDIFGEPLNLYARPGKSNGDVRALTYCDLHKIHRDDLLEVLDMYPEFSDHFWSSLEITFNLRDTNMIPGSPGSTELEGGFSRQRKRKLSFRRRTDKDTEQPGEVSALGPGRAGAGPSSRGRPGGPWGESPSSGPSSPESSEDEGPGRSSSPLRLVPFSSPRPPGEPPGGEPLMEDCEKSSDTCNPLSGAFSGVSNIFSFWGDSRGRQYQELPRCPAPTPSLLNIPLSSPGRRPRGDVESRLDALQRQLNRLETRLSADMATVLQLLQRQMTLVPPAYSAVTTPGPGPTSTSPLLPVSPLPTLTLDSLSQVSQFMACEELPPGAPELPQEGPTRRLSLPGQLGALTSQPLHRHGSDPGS
Histamine H3 receptor (Homo sapiens), sequence (Q9Y5N1 whole entry): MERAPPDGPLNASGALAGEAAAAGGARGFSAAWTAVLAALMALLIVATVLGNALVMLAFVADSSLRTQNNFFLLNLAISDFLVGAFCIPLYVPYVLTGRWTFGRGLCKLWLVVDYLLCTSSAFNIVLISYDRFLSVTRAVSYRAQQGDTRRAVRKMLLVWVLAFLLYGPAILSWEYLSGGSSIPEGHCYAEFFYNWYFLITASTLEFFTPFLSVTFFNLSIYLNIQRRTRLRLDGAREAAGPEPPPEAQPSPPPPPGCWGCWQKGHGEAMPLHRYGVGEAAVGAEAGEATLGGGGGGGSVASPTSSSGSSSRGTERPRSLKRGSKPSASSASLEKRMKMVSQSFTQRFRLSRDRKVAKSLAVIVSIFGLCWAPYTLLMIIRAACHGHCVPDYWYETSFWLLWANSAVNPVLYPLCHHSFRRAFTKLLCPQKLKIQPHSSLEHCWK
Histamine H1 receptor (Homo sapiens), sequence (P35367 whole entry): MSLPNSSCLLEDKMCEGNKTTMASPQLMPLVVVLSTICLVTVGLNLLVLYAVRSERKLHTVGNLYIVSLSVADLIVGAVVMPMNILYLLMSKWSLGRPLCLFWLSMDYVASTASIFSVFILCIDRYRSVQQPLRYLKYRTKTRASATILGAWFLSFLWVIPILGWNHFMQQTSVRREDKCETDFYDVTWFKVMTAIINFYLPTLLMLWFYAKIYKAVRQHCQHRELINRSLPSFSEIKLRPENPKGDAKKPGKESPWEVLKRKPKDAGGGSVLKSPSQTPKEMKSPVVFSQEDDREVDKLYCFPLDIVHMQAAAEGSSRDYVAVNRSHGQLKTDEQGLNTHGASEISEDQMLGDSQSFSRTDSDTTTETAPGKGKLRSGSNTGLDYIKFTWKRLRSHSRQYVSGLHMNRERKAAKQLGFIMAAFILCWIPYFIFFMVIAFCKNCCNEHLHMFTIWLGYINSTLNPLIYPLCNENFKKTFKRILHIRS

| SMILES | clearance [1] [µL/min/mg] | clearance [2] [µL/min/mg] | pKa (physchem [7]) | logD (physchem [8]) | further results |
| --- | --- | --- | --- | --- | --- |
| CC(C)N1CCC(Oc2ccc3c(c2)cc(C(=O)N2CCC(F)(F)CC2)n3S(C)(=O)=O)CC1 | < 1 | 10 | 9.6 | 1.31 | half-life (in vivo [4]): 6 h; Vd (in vivo [10]): 9.2 L/kg; inhibition at 10 µM (hERG (KCNH2)): 64%; inhibition in vivo at 3 mg/kg (Rattus norvegicus [11]): 81% |
| CCOC(=O)c1cc2cc(C(=O)O)ccc2[nH]1 | < 1 | 15 | – | 0.04 | – |
| CC(=O)n1c(C(=O)N2CCC(F)(F)CC2)cc2cc(OC3CCN(C(C)C)CC3)ccc21 | < 1 | – | – | – | – |
| CCN(c1ccc2[nH]c(C(=O)N3CCOCC3)cc2c1)C1CCN(C(C)C)CC1 | – | – | – | – | inhibition [13]: 19% |
| O=C(c1cc2cc(OC3CCN(C4CC4)CC3)ccc2n1CC(F)(F)F)N1CCOCC1 | 11 | 143 | 7.5 | 2.79 | – |
| O=C(c1ccc2c(c1)cc(C(=O)N1CCOCC1)n2CC(F)(F)F)N1CCN(C2CCC2)CC1 | 10 | 16 | 6.8 | 1.97 | Kp (in vivo [15]): 0.3; Vd (in vivo [10]): 1.5 L/kg; inhibition at 10 µM (hERG (KCNH2)): 33%; inhibition in vivo at 10 mg/kg (Rattus norvegicus [16]): 93% |
| O=C(c1cc2cc(OC3CCN(C4CCC4)CC3)ccc2n1CC(F)(F)F)N1CCOCC1 | 4 | 28 | 9.1 | 2.09 | – |
| CC(C)N1CCC(Oc2ccc3c(c2)cc(C(=O)N2CCS(=O)(=O)CC2)n3CC(F)(F)F)CC1 | 1 | 4 | 9.6 | 0.35 | – |
| CC(C)N1CCC(Oc2ccc3c(c2)cc(C(=O)N2CCC(F)(F)CC2)n3C(C)C)CC1 | 4 | 12 | 9.9 | 1.67 | concentration at 2 h (in vivo [3]): 1270 ng/g; half-life (in vivo [4]): 11 h; Vd (in vivo [10]): 9.2 L/kg; inhibition at 10 µM (hERG (KCNH2)): 42%; inhibition in vivo at 3 mg/kg (Rattus norvegicus [18]): 80% |
| CC(C)N1CCC(Oc2ccc3c(c2)cc(C(=O)N2CCC(F)(F)CC2)n3CC#N)CC1 | < 1 | 16 | 9.8 | 1.13 | – |
| CC(C)N1CCC(Oc2ccc3c(c2)cc(C(=O)N2CCC(F)(F)CC2)n3S(=O)(=O)c2ccc(F)cc2)CC1 | < 1 | 20 | – | 3.04 | inhibition [19]: > 30% |
| CC(C)N1CCC(Oc2ccc3c(c2)cc(C(=O)N2CCC(F)(F)CC2)n3CC(F)(F)F)CC1 | 2 | 8 | 9.7 | 2.08 | concentration at 2 h (in vivo [20]): 435 ng/g; half-life (in vivo [4]): 1.8 h; inhibition in vivo at 3 mg/kg (Rattus norvegicus [18]): 49% |
| O=C(c1cc2cc(OCCCN3CCCCC3)ccc2[nH]1)N1CCOCC1 | < 1 | 6 | 10 | 0.32 | inhibition [21]: 6%; inhibition [19]: 3%; inhibition [22]: 4%; inhibition in vivo at 10 mg/kg (Rattus norvegicus [12]): 66% |
| CC(C)N1CCC(Oc2ccc3c(c2)cc(C(=O)N2CCC(F)(F)CC2)n3-c2ccc(Cl)c(Cl)c2)CC1 | < 1 | 104 | – | 3.38 | inhibition [19]: > 30% |
| O=C(c1cc2cc(OC3CCN(C4COC4)CC3)ccc2n1CC(F)(F)F)N1CCOCC1 | 8 | 228 | 6.4 | 1.83 | – |

Now from value to molecule, other results behind:

| clearance [1] [µL/min/mg] | clearance [2] [µL/min/mg] | pKa (physchem [7]) | logD (physchem [8]) | SMILES | further results |
| --- | --- | --- | --- | --- | --- |
| 5 | 9 | 9.7 | 1.2 | CC(C)N1CCC(Oc2ccc3[nH]c(C(=O)N4CCC(F)(F)CC4)cc3c2)CC1 | concentration at 2 h (in vivo [3]): 1690 ng/g; half-life (in vivo [4]): 4 h; bioavailability (in vivo [5]): 100%; inhibition at 10 µM (hERG (KCNH2)): 73%; solubility (physchem [6]): > 540 µg/mL; inhibition in vivo at 1 mg/kg (Rattus norvegicus [9]): 58% |
| 6 | 18 | 9.5 | – | CC(C)N1CCC(Oc2cc3[nH]c(C(=O)N4CCOCC4)cc3cc2F)CC1 | – |
| 10 | 55 | 9.7 | 1.75 | CC(C)N1CCC(Oc2ccc3[nH]c(C(=O)N4CCCCCC4)cc3c2)CC1 | inhibition in vivo at 10 mg/kg (Rattus norvegicus [12]): 76% |
| 5 | 20 | 9.9 | 0.59 | COC1CCN(C(=O)c2cc3cc(OC4CCN(C(C)C)CC4)ccc3[nH]2)CC1 | inhibition in vivo at 30 mg/kg (Rattus norvegicus [14]): 70% |
| < 1 | 15 | 9.8 | -0.12 | Cc1[nH]c2ccc(OC3CCN(C(C)C)CC3)cc2c1C(=O)N1CCOCC1 | – |
| 10 | 13 | 10 | 0.03 | CC(C)(C)N1CCC(Oc2ccc3[nH]c(C(=O)N4CCOCC4)cc3c2)CC1 | – |
| < 1 | 8 | 9.7 | 0.31 | CC(C)N1CCC(Oc2ccc3cc(C(=O)N4CCOCC4)[nH]c3c2)CC1 | inhibition in vivo at 10 mg/kg (Rattus norvegicus [12]): 60% |
| < 1 | 12 | 10 | 0.09 | CC(C)N1CCC(Oc2ccc3[nH]c(C(=O)N4CCOCC4)cc3c2)CC1 | Kp (in vivo [15]): 0.3; concentration at 2 h (in vivo [17]): 2230 ng/g; half-life (in vivo [4]): 1 h; inhibition at 10 µM (hERG (KCNH2)): 28%; inhibition in vivo at 30 mg/kg (Rattus norvegicus [14]): 91% |
| < 1 | 17 | 10 | 1.23 | CC(C)N1CCC(Oc2ccc3[nH]c(C(=O)N4CCCC(F)(F)C4)cc3c2)CC1 | inhibition in vivo at 10 mg/kg (Rattus norvegicus [12]): 86% |
| < 1 | 13 | 9.7 | 1.1 | CC(C)N1CCC(Oc2ccc3c(c2)cc(C(=O)N2CCOCC2)n3CC(F)(F)F)CC1 | inhibition in vivo at 10 mg/kg (Rattus norvegicus [16]): 87%; inhibition in vivo at 10 mg/kg (Rattus norvegicus [12]): 87% |
| 5 | 9 | 9.9 | -0.7 | CC(C)N1CCC(Nc2ccc3[nH]c(C(=O)N4CCOCC4)cc3c2)CC1 | inhibition in vivo at 30 mg/kg (Rattus norvegicus [14]): 99% |
| 5 | 347 | 7.7 | 1.95 | O=C(c1cc2cc(OC3CCN(C4CC4)CC3)ccc2[nH]1)N1CCOCC1 | – |
| 12 | 5 | 9.8 | -0.15 | CC(C)N1CCC(Oc2ccc3[nH]c(C(=O)N4CCC(O)C4)cc3c2)CC1 (stereo not drawn) | inhibition in vivo at 30 mg/kg (Rattus norvegicus [14]): 83% |
